Where a SMILES comes first, the peptide text is derived from it.
Tested on: drug-resistant Mycobacterium tuberculosis
Settings: 5 micrograms per ml

CC(C)C[C@H](NC(=O)CNC(=O)[C@H](CCC(=O)O)NC(=O)CNC(=O)[C@H](C)N)C(=O)N[C@@H](CC(N)=O)C(=O)N[C@@H](CO)C(=O)N[C@@H](CCC(N)=O)C(=O)N[C@@H](Cc1ccccc1)C(=O)N[C@@H](Cc1c[nH]c2ccccc12)C(=O)N[C@@H](CO)C(=O)N[C@@H](CC(C)C)C(=O)N[C@@H](C)C(=O)N[C@@H](C)C(=O)N1CCC[C@H]1C(=O)N[C@@H](CCC(N)=O)C(=O)N[C@@H](CCCNC(=N)N)C(=O)N[C@@H](Cc1ccccc1)C(N)=O [Neuropeptide AF, Ala-Gly-Glu-Gly-Leu-Asn-Ser-Gln-Phe-Trp-Ser-Leu-Ala-Ala-Pro-Gln-Arg-Phe-NH2] (H-AGEGLNSQFWSLAAPQRF-NH2)
% inhibition: 0.0%
